Here are results for two compounds from paper PMC12217528, “Structural basis of topoisomerase targeting by delafloxacin” (Nature Communications, 2025).

Common to all, as to format: biochemical
The target in assay [1] is T1, topoisomerase IV (ParC subunit, ParE30-ParC55 fusion) (Streptococcus pneumoniae, UniProt P72525+Q59961). Put plainly: X-ray co-crystal structures at […] and […] Å; DNA cleavage assay with purified enzyme. Details: ParE30-ParC55 fusion protein (ParE TOPRIM domain + ParC breakage-reunion domain), C-terminal His6; with ParE (ParE30 TOPRIM domain), with 18-mer V-site or E-site gate DNA.
Target sequence in this assay (Q59961 404-647): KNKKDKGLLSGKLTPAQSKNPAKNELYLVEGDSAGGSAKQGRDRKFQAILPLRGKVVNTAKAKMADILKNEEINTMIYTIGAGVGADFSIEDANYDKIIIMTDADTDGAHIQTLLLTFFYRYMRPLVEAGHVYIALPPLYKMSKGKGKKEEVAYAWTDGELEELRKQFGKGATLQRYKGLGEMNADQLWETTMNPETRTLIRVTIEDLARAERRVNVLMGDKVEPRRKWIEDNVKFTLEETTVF
Target sequence in this assay (P72525 1-490): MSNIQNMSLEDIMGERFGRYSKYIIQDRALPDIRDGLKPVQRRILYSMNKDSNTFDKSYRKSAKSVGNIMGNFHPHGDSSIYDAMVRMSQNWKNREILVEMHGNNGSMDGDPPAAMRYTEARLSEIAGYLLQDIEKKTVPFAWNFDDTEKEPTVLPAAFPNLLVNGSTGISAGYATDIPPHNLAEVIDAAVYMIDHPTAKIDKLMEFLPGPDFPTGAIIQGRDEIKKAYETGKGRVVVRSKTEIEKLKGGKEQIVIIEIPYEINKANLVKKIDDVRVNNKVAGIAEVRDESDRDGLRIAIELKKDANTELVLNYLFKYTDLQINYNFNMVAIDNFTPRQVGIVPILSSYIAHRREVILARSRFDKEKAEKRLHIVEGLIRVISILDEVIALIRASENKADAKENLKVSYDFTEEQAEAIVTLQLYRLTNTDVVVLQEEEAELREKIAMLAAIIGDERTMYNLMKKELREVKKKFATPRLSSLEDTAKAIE

Assay [2] has as its target T2, DNA gyrase (GyrA subunit) (Streptococcus pneumoniae, UniProt P0A4M0+Q8DPM2).
T2 construct: full-length GyrA reconstituted with GyrB; with GyrB, with DNA
Put plainly: supercoiled pBR322 DNA cleavage assay (cleavage complex stabilisation).

Assay [3] has as its target T1, topoisomerase IV (ParC subunit, ParE30-ParC55 fusion). Described as above. Also on record: ParE30-ParC55 fusion protein; with ParE (ParE30 TOPRIM domain), with DNA.
Target sequence in this assay (P72525 1-490): as above
Target sequence in this assay (Q59961 404-647): as the sequence (Q59961 404-647) above

T2 sequence (Q8DPM2 whole entry): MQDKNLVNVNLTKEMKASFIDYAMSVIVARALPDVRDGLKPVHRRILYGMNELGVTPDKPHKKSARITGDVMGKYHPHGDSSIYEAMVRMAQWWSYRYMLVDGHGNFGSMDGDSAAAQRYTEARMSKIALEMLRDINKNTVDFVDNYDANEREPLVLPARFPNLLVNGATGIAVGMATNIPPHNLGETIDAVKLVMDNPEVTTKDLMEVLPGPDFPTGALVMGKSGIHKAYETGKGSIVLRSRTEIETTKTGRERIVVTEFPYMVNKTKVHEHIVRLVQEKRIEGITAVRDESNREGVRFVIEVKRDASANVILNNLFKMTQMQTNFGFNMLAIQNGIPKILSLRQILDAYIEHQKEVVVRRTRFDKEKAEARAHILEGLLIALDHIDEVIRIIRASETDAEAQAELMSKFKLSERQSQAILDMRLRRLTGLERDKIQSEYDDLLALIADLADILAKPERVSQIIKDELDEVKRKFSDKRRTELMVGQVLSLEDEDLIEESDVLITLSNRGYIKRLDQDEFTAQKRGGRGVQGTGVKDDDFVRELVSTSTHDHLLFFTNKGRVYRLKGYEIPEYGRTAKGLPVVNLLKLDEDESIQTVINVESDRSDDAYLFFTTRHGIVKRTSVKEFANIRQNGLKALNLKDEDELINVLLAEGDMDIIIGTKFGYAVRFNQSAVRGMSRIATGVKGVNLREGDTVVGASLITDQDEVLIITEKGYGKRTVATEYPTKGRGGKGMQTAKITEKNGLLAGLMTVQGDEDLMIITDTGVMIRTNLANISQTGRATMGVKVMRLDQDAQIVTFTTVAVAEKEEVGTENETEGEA
T2 sequence (P0A4M0 whole entry): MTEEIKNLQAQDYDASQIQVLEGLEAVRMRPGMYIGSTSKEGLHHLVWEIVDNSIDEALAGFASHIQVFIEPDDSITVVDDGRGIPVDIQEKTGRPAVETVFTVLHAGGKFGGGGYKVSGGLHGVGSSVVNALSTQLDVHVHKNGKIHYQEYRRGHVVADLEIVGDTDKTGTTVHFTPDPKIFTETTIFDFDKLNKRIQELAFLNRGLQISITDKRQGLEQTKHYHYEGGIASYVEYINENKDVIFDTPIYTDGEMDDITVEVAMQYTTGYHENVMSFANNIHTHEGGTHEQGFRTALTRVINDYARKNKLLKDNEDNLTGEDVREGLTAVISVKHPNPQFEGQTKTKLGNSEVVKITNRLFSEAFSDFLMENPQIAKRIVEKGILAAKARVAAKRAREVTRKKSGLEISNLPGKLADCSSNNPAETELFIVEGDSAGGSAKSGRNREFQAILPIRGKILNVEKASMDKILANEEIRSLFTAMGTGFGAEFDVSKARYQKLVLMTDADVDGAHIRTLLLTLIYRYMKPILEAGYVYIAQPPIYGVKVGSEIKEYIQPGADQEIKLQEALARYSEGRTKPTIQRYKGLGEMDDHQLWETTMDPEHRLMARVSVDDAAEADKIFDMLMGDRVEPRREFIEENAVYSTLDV

In the case of `Nc1nc(-n2cc(C(=O)O)c(=O)c3cc(F)c(N4CC(O)C4)c(Cl)c32)c(F)cc1F` [Delafloxacin], the “X-ray co-crystal structures at 2.0 and 2.4 Å; DNA cleavage assay with purified e” value in assay [1] is recorded as 0.12 µM. Also, the “supercoiled pBR322 DNA cleavage assay (cleavage complex stabilisation)” value in assay [2] is recorded as 2.5–5.0 µM.

As for `C[C@H]1COc2c(N3CCN(C)CC3)c(F)cc3c(=O)c(C(=O)O)cn1c23` [Levofloxacin], the “supercoiled pBR322 DNA cleavage assay (cleavage complex stabilisation)” value in assay [3] was determined as 2.5 µM.
